# Measurements: US9410128B2, “Method and compounds for generation of iPSCs” (Sanford-Burnham Medical Research Institute, priority 2011, dated 2016)
# Legend:
# Format in all cases: cell-based, mouse
# [1] = test system: Oct4-EGFP MEFs; test: OKM (without Sox2) reprogramming of Oct4-EGFP MEFs, GFP+ colony count
# Experimental: Oct4-EGFP MEFs were derived from the mouse strain B6; 129S4-Pou5f1^tm2(EGFP)Jae/J (The Jackson Laboratory, Bar Harbor, Me., USA, on the world wide web at jax.org/; stock #008214) following the protocol on the WiCell Research Institute, Madison, Wis., USA, on the world wide web at wicell.org/website. In brief, embryonic day 13.5 (E13.5) embryos were collected from timemated pregnant female mice and then tested for microbial contamination. […]
# (§1) Reprogramming was conducted as described in Takahashi et al. (Cell 126: 663-676 (2006)). […] Reprogrammed (EGFP+) cells were identified and scored by fluorescence microscopy two to three weeks post transduction, unless otherwise stated. […]
# Oct4-EGFP MEFs were transduced with OKM and treated with pool of 6 molecules, including NiSO4, nabumetone, OHTM, moclobemide, lectin, and corynanthine, at day 4 for at least 10 days. GFP+ colonies were identified and counted as described in FIG. 1 at day 14. […]
# Oct4-EGFP MEFs were transduced with OKM and four days later treated with 1.25 uM OHTM at least 10 days. GFP+ colonies were counted as described in FIG. 1 at day 15˜21. […]
# Oct4-EGFP MEFs were transduced with OKM and four days later treated with 2.18 uM nabumetone (Nabu) for at least 10 days. GFP+ colonies were counted as described in FIG. 1 at day 17˜21. […]
# [2] = test system: Sox2; test: Endogenous Sox2 mRNA expression by real time qRT-PCR in OKM-transduced Oct4-EGFP MEFs; conditions: OKM-transduced cells, compared with OKM+DMSO (FIG. 3E)
# Source text: To understand the molecular mechanism underlying OHTM's effect on reprogramming, the question of whether OHTM induces endogenous Sox2 expression was posed. To do so, OHTM or control DMSO was applied to Oct4-EGFP MEF four days after transduction with OKM. Cells were harvested at indicated time points for total RNA isolation and real time qRT-PCR analysis (FIG. 3E). […] However, the direct targets of OHTM to affect Sox2 expression were not clear.
# Oct4-EGFP MEFs were transduced with OKM and treated with OHTM four days later. Cells were harvested at indicated days (D) for real time RT-PCR analysis. β actin expression serves as an internal control. Error bars represent standard deviation of 2˜3 independent experiments. * p value <0.05.
# [3] = test system: Oct4-EGFP MEFs; test: Alkaline phosphatase (AP)+ colony formation during reprogramming; conditions: molecules applied during reprogramming; data not shown
# Experimental: iPS cells were seeded and cultured on 0.1% gelatin-coated 6-well plates. Four days later, cells were fixed with 4% paraformadehyde (Electron Microscopy Sciences; Cat#15710-S). For immunofluorescence, fixed cells were permeabilized with 0.1% Triton X-100 in PBS and blocked with 5% BSA in PBS. SSEA-1 (R&D; Cat#MAB2155), Sox2 (R&D; Cat#MAB2018), and Nanog (R&D; Cat#AF2729) antibodies were used to detect ES markers. Nuclei were visualized by Hoechst 33342 (Invitrogen) staining. For AP staining, fixed cells were treated with alkaline phosphatase substrate following the manufacturer's instruction (Vector Laboratories; Cat#SK-5100).
# All 17 molecules were tested by examining alkaline phosphatase (AP)+ colony formation during reprogramming while these molecules were applied. […] To that end, 6 molecules were picked including nabumetone, 4-hydroxytamoxifen (OHTM), corynanthine, moclobemide, NiSO4, and lectin—for further analysis (FIG. 2A). To evaluate their effect on induction of mature GFP+ iPS cells, OSKM-transduced Oct4-EGFP MEFs were treated four days after transduction with each of these factors separately.
# [4] = test system: Oct4-EGFP MEFs; test: OSKM-induced reprogramming of Oct4-EGFP MEFs to iPS cells, GFP+ colony count
# Source text: (§2) Oct4-EGFP MEFs were derived from the mouse strain B6; 129S4-Pou5f1^tm2(EGFP)Jae/J (The Jackson Laboratory, Bar Harbor, Me., USA, on the world wide web at jax.org/; stock #008214) following the protocol on the WiCell Research Institute, Madison, Wis., USA, on the world wide web at wicell.org/website. In brief, embryonic day 13.5 (E13.5) embryos were collected from timemated pregnant female mice and then tested for microbial contamination. Oct4-EGFP MEFs were maintained in MEF complete medium (Dulbecco's modified Eagle's medium [For DMEM or culture medium & materials: Gibco Cell Culture, Carlsbad, Calif., USA, on the world wide web at invitrogen.com/gibco] with 10% fetal bovine serum (FBS), nonessential amino acids, L-glutamine, and no sodium pyruvate). Cells passaged fewer than five times were used for induced reprogramming.
# Reprogramming was conducted as described in Takahashi et al. (Cell 126: 663-676 (2006)). In brief, 4×10^4 Oct4-EGFP MEF were transduced with pMX retroviruses for ectopic expression of Oct4, Sox2, Klf4, and c-Myc (Addgene). Three days later, cells were fed ES medium (DMEM with 15% ES-screened FBS, nonessential amino acids, L-glutamine, monothioglycerol, and 1000 U/ml leukemia inhibitory factor (LIF)) and the media was changed every other day. Reprogrammed (EGFP+) cells were identified and scored by fluorescence microscopy two to three weeks post transduction, unless otherwise stated. To derive iPSCs, EGFP+ colonies were manually picked under a stereomicroscope (Leica Microsystems). In the case of small molecule treatment, indicated small molecules were applied to reprogramming cells on day four post-transduction and fresh medium was added every other day for at least two weeks or until EGFP+ colonies appeared.
# For reprogramming, retrovirus expressing reprogramming factors (Oct4, Sox2, Klf4, and c-Myc) were added and the medium was then changed to complete medium next day. For overexpression of COX2 transgene, retroviruses expressing COX2 were added 1 day after OSKM transduction. siRNAs were introduced at day 5 post-transduction.
# [5] = test system: Oct4-EGFP MEFs; test: OSK (without c-Myc) reprogramming of Oct4-EGFP MEFs, GFP+ colony count
# Source text: as §2
# as §1, with “(2006)). In brief, 4×10^4 Oct4-EGFP MEF were transduced with pMX retroviruses for ectopic expression of Oct4, Sox2, Klf4, and c-Myc (Addgene).” for “(2006)).”
compound,measurement,setting,value
4-hydroxytamoxifen [4-hydroxytamoxifen (OHTM)],effect on OKM-induced reprogramming,"[1]; 1.25 uM, day 15~21, vs OKM+DMSO (FIG. 3C)",significantly improved
same,induction of endogenous Sox2 mRNA,[2]; day 12,220%
same,induction of endogenous Sox2 mRNA,[2]; day 16,400%
same,effect on AP+ colony formation,[3],not showing adverse effect
COC(=O)[C@H]1[C@H]2C[C@H]3c4[nH]c5ccccc5c4CCN3C[C@@H]2CC[C@@H]1O.Cl [Corynanthine hydrochloride],effect on AP+ colony formation,[3],not showing adverse effect
O=C(NCCN1CCOCC1)c1ccc(Cl)cc1 [Moclobemide],effect on AP+ colony formation,[3],not showing adverse effect
COc1ccc2cc(CCC(C)=O)ccc2c1 [Nabumetone],enhancement of reprogramming efficiency,"[4]; in the presence of control siRNA (siNT), compared with DMSO treatment, day 12~14 (FIG. 2C)",more than 6 fold
same,increase in number of reprogrammed (GFP+) colonies,"[4]; treated four days after transduction, compared with DMSO controls (FIG. 2B)",at least 2.8 fold
same,enhancement of reprogramming by OSK,"[5]; OSK without c-Myc, treated four days after transduction, day 21, compared with OSK+DMSO (FIG. 3A)",~2.5 fold
same,effect on OKM-induced reprogramming,"[1]; 2.18 uM, day 17~21 (FIG. 3D)",significantly improved
same,effect on AP+ colony formation,[3],not showing adverse effect
COc1ccc2c(c1)c(CC(=O)O)c(C)n2C(=O)c1ccc(Cl)cc1 [indomethacin],effect on iPSC generation (EGFP+ colony number),"[4]; applied day 4~5 post transduction, scored two weeks post transduction (FIG. 6A)",no effect
same,effect on iPSC generation (EGFP+ colony number),"[5]; OSK, applied day 4~5 post transduction, scored two weeks post transduction (FIG. 6B)",no effect
